# Earlier results in patent publication US6191117A, “Methods of producing weight loss and treatment of obesity” (priority 2000, dated 2001).
# Entries after “also recorded” stand apart in the source; their conditions may differ. Where two headings read alike, the source gives them in different places.
# What was measured:
# epileptic patients [1] = test system: epileptic patients
# epileptic patients [2] = conditions: human, in vivo
# [3] = test system: patients treated for epilepsy
# carbonic anhydrase CA-II = conditions: compared with acetozolamide
# seizure patients = conditions: for patients with weight decrease: adjunctive therapy, control 3%
# cerebral GABA = conditions: within three hours of oral administration
# carbonic anhydrase CA-IV = conditions: compared with acetozolamide
# young healthy adults = conditions: acute doses and 2- and 4-week test periods
# [4] = another study, epileptic patients
# [5] = clinical trials on seizure patients
smiles,measurement,setting,value
NC(=O)OCC(COC(N)=O)c1ccccc1 [FBM],activity at the NMDA receptor,NMDA receptor,glycine site NMDA antagonist
same,"aplastic anemia and hepatic failure, 1994 reports",epileptic patients [1]; 1994 reports,causing aplastic anemia and hepatic failure
same,thrombocytopenia and neutropenia,"epileptic patients [1]; add-on therapy, Lennox-Gestalt Syndrome, prior to FDA approval",Several mild cases of thrombocytopenia and neutropenia
same,aplastic anemia or hepatic dysfunction after FDA warning,"epileptic patients [1]; adjunctive FBM, refractory epilepsy, serum levels monitored",No cases of aplastic anemia or hepatic dysfunction
same,safety of long usage,"epileptic patients [1]; adjunctive therapy, at least one year",relatively safe after usage for at least one year
same,aplastic anemia or hepatic dysfunction prior to approval,epileptic patients [1]; prior to drug approval,no reported cases of aplastic anemia or hepatic dysfunction
same,aplastic anemia attributable to FBM monotherapy,epileptic patients [1]; recent analysis,only several cases of aplastic anemia
same,drug interactions,epileptic patients [1]; with other antiepileptic drugs,"elevation of dilantin, depakote, phenobarbitol levels and the toxic epoxide metabolite of tegretol"
same,interaction at L-type calcium channels,L-type calcium channels,an interaction at the L-type calcium channels
same,action on sodium channel,sodium channel,modulation of the Na++ channel conductance
same,cognition and fine motor function,epileptic patients [2],increase both cognition and fine motor function
same,activity at the kainate/AMPA receptor,kainate/AMPA receptor,interaction at the kainate/AMPA receptor
same,action on GABA,GABA receptor,facilitation of the GABA receptor
same,weight loss,"[3]; FBM monotherapy, non-obese patients",5%
same,course of weight loss,"[3]; add-on therapy, partial epilepsy, non-obese patients",transient and returned to baseline after twenty weeks
same,anorexia and weight loss,[3]; patients treated for epilepsy,induce anorexia and weight loss
"CC1(C)O[C@@H]2[C@@H](CO[C@@]3(COS(N)(=O)=O)OC(C)(C)O[C@@H]23)O1 [TPM, 2,3:4,5-DI-O-isolpropylidene-B-D-fructopyranose sulfamate]",carbonic anhydrase inhibition,carbonic anhydrase,weak carbonic anhydrase inhibitor
same,effect on urinary citrate excretion and urinary pH,carbonic anhydrase,reducing urinary citrate excretion and by increasing urinary pH
same,inhibition of CA-II,carbonic anhydrase CA-II,weaker than that of acetozolamide
same,patients with weight decrease,seizure patients; 200-400 mg/day,9%
same,patients with weight decrease,"seizure patients; 600-1,000 mg/day",13%
same,weight loss with valproate or valproate plus carbamazepine co-treatment,"seizure patients; also treated with valproate, or valproate with carbamazepine",tended to be higher
same,amount of weight increase,"seizure patients; another study, 2/12 patients",12-25 pounds
same,amount of weight loss,"seizure patients; another study, 5/12 patients",12-42 pounds
same,patients with weight increase,seizure patients; [4],2/12
same,patients with weight loss,seizure patients; [4],5/12
same,average decline from baseline weight,seizure patients; [5],2-8%
same,average weight loss,seizure patients; [5],2 to 8 kg
same,report of anorexia in patients with weight loss,"seizure patients; human, in vivo",more likely to report anorexia or loss of appetite
same,time to peak of weight loss,"seizure patients; human, in vivo",12-15 months
same,body weight after prolonged therapy,seizure patients; prolonged therapy,gradually returning toward pre-topiramate levels
same,"patients with weight loss, long-term study",seizure patients; treated for up to 2.2 years,26%
same,activity at the NMDA receptor,NMDA receptor,no effect on the activity of N-methyl-D-aspartate (NMDA)
same,dose dependence of common adverse events,patients with seizures; 200 to 400 mg/day,did not appear to be dose-related
same,discontinuation due to adverse events,patients with seizures; 200 to 400 mg/day adjunctive therapy,11%
same,"common adverse events, controlled trials","patients with seizures; 200 to 400 mg/day, adults","somnolence, dizziness, ataxia, speech disorders and related speech problems, psychomotor slowing, abnormal vision, difficulty with memory, paresthesia and diplopia"
same,most common dose-related adverse events,"patients with seizures; 200 to 1,000 mg/day","fatigue, nervousness, difficulty with concentration or attention, confusion, depression, anorexia, language problems, anxiety, mood problems, and weight decrease"
same,course of adverse events,"patients with seizures; 200 to 1,000 mg/day, rapid dose titration of 200 mg/day",abated after 4 months of treatment
same,renal calculi incidence relative to similar untreated population,"patients with seizures; about, expected in a similar, untreated population",2-4 times
same,nonspecific CNS effects occasionally observed,patients with seizures; add-on therapy,"dizziness or imbalance, confusion, memory problems, and exacerbation of mood disturbances (i.e., irritability and depression)"
same,renal calculi (kidney stones) incidence,patients with seizures; adults,1.5%
same,severity of somnolence and fatigue,"patients with seizures; clinical trials, early in therapy",generally mild to moderate
same,dose dependence of fatigue incidence,patients with seizures; dosages above 400 mg/day,increases at dosages above 400 mg/day
same,central nervous system adverse events,"patients with seizures; human, in vivo","psychomotor slowing, difficulty with concentration, and speech or language problems, in particular, word-finding difficulty and somnolence and/or fatigue"
same,correlation of plasma concentrations with adverse events,"patients with seizures; human, in vivo",not correlated with the occurrence of adverse events
same,dose dependence of somnolence incidence,"patients with seizures; human, in vivo",does not appear to be dose-related
same,adverse events associated with discontinuing therapy,patients with seizures; increased at dosages above 400 mg/day,"somnolence, dizziness, anxiety, difficulty with concentration or attention, fatigue, and paresthesia"
same,post-marketing adverse experiences,patients with seizures; post-marketing data,"hepatic failure, hepatitis, pancreatitis, and renal tubular acidosis"
same,action on sodium channel,sodium channel,voltage-sensitive sodium channel blocking action
same,brain levels of cerebral GABA,cerebral GABA,acutely increase brain levels of cerebral GABA
same,inhibition of CA-IV,carbonic anhydrase CA-IV,weaker than that of acetozolamide
same,activity at the kainate/AMPA receptor,kainate/AMPA receptor,antagonizing the kainate/AMPA
same,bound to human plasma proteins,human plasma proteins; 1-250 μg/ml,13-17%
same,plasma protein binding,human plasma proteins; concentration not given,approximately 15%
same,time to peak (TTP) plasma concentrations,400 mg dose,about 2 hours
same,dose recovered in urine,100-mg dose,81-95%
same,linearity of pharmacokinetics,200 to 800 mg/day,linear with dose proportional increases in plasma concentration
same,route of elimination,TPM and its metabolites,predominantly renal
same,increase of plasma concentrations,hepatic impairment,29%
same,clearance in hepatically impaired subjects,hepatically impaired subjects,may be decreased
same,extent of metabolism,in vivo,not extensively metabolized
same,metabolites identified in humans,in vivo,Six metabolites
same,renal tubular reabsorption,in vivo,evidence of renal tubular reabsorption
same,routes of metabolite formation,in vivo,"hydroxylation, hydrolysis, and glucuronidation"
same,plasma levels in moderate or severe renal impairment,moderate or severe renal impairment,plasma levels are increased
same,reduction of clearance,moderate renal impairment (creatinine clearance 30-69 mL/min/1.73 m^2) vs normal,42%
same,eliminated unchanged in the urine,of an administered dose,approximately 70%
same,absorption,oral,rapid; also recorded: nearly complete
same,elimination half-life,patients with normal renal function,20 to 30 h
same,dose excreted as unchanged TPM,predominantly renal elimination,50-80%
same,reduction of clearance,severe renal impairment (creatinine clearance <30 mL/min/1.73 m^2) vs normal,54%
same,mean plasma concentration half-life,single or multiple doses,21 h
same,"relative bioavailability, effect of food",tablet,not affected by food
same,action on GABA,GABA receptor,potentiation of the effects of GABA
same,attention and word fluency,young healthy adults,statistically significant declines on measures of attention and word fluency
